Experimental data as given in ChEMBL document CHEMBL5096164, “In Vivo Profiling of a Natural Alkaloid, Anatabine, in Rodents: Pharmacokinetics and Anti-Inflammatory Efficacy” (J Nat Prod, 2021).
The source made the active and inactive calls. The calls are words filed in the database; no cut-off is given here.

Key:
[1] = test system: Mus musculus; experiment: Antiinflammatory activity ip/LPS induced mouse model assessed as reduction in IL-6 level in plasma preincubated for 1 hr followed by LPS stimulation and measured after 2 hrs by ELISA method; type: functional, organism-based; conditions: dose 1-5 mg/kg, time 3.0 hrs, DDE = dose-dependent effect
[2] = Drug concentration in carrageenan-induced paw edema in rat respiratory tract at 254.3 microg/L via inhalation measured for 60 mins; type: ADME; conditions: inhaled or intranasal, route inh, dose 254.3 µg/L, read-out: Drug uptake
[3] = Clearance in Wistar rat plasma at 1 mg/kg, iv administered as bolus dose measured after 5 to 360 mins by LC-MS/MS analysis; type: ADME, organism-based; conditions: in vivo, time 5-360 min
[4] = Drug uptake in rat aerosol at medium dose via inhalation measured for 30 mins; type: ADME; conditions: in vivo, inhaled_or_intranasal, 0.5 h, route inh
[5] = Half life in Wistar rat plasma at 1 mg/kg, iv administered as bolus dose measured after 5 to 360 mins by LC-MS/MS analysis; type: ADME, organism-based; conditions: time 5-360 min
[6] = test system: Mus musculus; experiment: Antiinflammatory activity LPS induced mouse model assessed as reduction in IL-9 at 1 to 5 mg/kg, ip preincubated for 1 hr followed by LPS stimulation and measured after 2 hrs by luminex xMAP bead based assay; type: functional, organism-based; conditions: dose 1-5 mg/kg, time 3.0 hrs
[7] = AUC in Wistar rat plasma at 1 mg/kg, iv administered as bolus dose measured after 5 to 360 mins by LC-MS/MS analysis; type: ADME, organism-based; set-up: time upper 360 min, time lower 5 min, dose 1 mg/kg, route iv
[8] = Tmax in Wistar rat plasma at 2 mg/kg, iv administered as bolus dose measured after 5 to 360 mins by LC-MS/MS analysis; type: ADME, organism-based; conditions: time 5-360 min
[9] = test system: Mus musculus; experiment: Antiinflammatory activity ip /LPS induced mouse model assessed as upregulation of IL-10 level preincubated for 1 hr followed by LPS stimulation and measured after 2 hrs by luminex xMAP bead based assay; type: functional, organism-based; conditions: dose 1-5 mg/kg, time 3.0 hrs, DDE = dose-dependent effect
[10] = Half life in Wistar rat plasma at 5 mg/kg, ip administered as bolus dose measured after 5 to 360 mins by LC-MS/MS analysis; type: ADME, organism-based; conditions: time 5-360 min
[11] = Bioavailability in rat at 0.40 mg/kg via inhalation; type: ADME, organism-based; conditions: in vivo, inhaled or intranasal, route inh, dose 0.4 mg/kg
[12] = test system: Mus musculus; experiment: Antiinflammatory activity in LPS induced mouse model assessed as reduction in tumor necrosis factor alpha level in plasma at 5 mg/kg, ip preincubated for 1 hr followed by LPS stimulation and measured after 2 hrs by ELISA method relative to control; type: functional; set-up: scale not given: the % may be the effect or the level left
[13] = Clearance in C57BL/6 mouse plasma at 2 mg/kg, ip measured after 3 to 240 mins by LC-MS/MS analysis; type: ADME, organism-based; conditions: time 3-240 min
[14] = Tmax in Wistar rat plasma at 5 mg/kg, ip administered as bolus dose measured after 5 to 360 mins by LC-MS/MS analysis; type: ADME, organism-based; conditions: time 5-360 min
[15] = Drug concentration in carrageenan-induced paw edema in rat respiratory tract at 77.9 microg/L via inhalation measured for 30 mins; type: ADME; conditions: inhaled or intranasal, route inh, dose 77.9 µg/L, read-out: Drug uptake
[16] = Antiinflammatory activity in MOG (35 to 55 residues)-induced experimental autoimmune encephalomyelitis mouse aerosol assessed as reduction in clinical score at 25 microg/L measured on 15 day (reference value: 1.9); type: ADME; conditions: inhaled_or_intranasal, 360 h, dose 25 µg/L
[17] = Drug uptake in rat aerosol at 261.4 microg/L via inhalation measured for 30 mins; type: ADME; conditions: in vivo, inhaled_or_intranasal, 0.5 h, dose 261.4 µg/L
[18] = Volume of distribution at steady state in Wistar rat plasma at 1 mg/kg, iv administered as bolus dose measured after 5 to 360 mins by LC-MS/MS analysis; type: ADME, organism-based; conditions: time 5-360 min, read-out: Vdss
[19] = Tmax in C57BL/6 plasma at 2 mg/kg, ip measured after 3 to 240 mins by LC-MS/MS analysis; type: ADME, organism-based; conditions: C57BL/6, mouse, time 3-240 min
[20] = Bioavailability in Wistar rat plasma at 2 mg/kg, iv administered as bolus dose measured after 5 to 360 mins by LC-MS/MS analysis; type: ADME, organism-based; conditions: time 5-360 min
[21] = Cmax in rat at 2.73 mg/kg via inhalation; type: ADME, organism-based; set-up: dose 2.73 mg/kg, route inh; conditions: in vivo, inhaled or intranasal
[22] = Bioavailability in Wistar rat plasma at 5 mg/kg, ip administered as bolus dose measured after 5 to 360 mins by LC-MS/MS analysis; type: ADME, organism-based; conditions: time 5-360 min
[23] = Half life in rat at 2.73 mg/kg via inhalation; type: ADME, organism-based; conditions: in vivo, inhaled or intranasal, route inh
[24] = Cmax in Wistar rat plasma at 2 mg/kg, iv administered as bolus dose measured after 5 to 360 mins by LC-MS/MS analysis; type: ADME, organism-based; set-up: dose 2 mg/kg, time upper 360 min, time lower 5 min, route iv
[25] = test system: Mus musculus; experiment: Antiinflammatory activity LPS induced mouse model assessed as reduction in IL-7 at 1 to 5 mg/kg, ip preincubated for 1 hr followed by LPS stimulation and measured after 2 hrs by luminex xMAP bead based assay; type: functional, organism-based; conditions: dose 1-5 mg/kg, time 3.0 hrs
[26] = AUC in Wistar rat plasma at 2 mg/kg, iv administered as bolus dose measured after 5 to 360 mins by LC-MS/MS analysis; type: ADME, organism-based; set-up: time lower 5 min, dose 2 mg/kg, time upper 360 min, route iv
[27] = Drug uptake in MOG (35 to 55 residues)-induced experimental autoimmune encephalomyelitis unimmunized mouse plasma at 25 microg/L by LC-MS/MS analysis; type: ADME; conditions: dose 25 µg/L
[28] = Bioavailability in Wistar rat plasma at 1 mg/kg, iv administered as bolus dose measured after 5 to 360 mins by LC-MS/MS analysis; type: ADME, organism-based; conditions: in vivo, time 5-360 min
[29] = AUC in rat at 0.40 mg/kg via inhalation; type: ADME, organism-based; set-up: dose 0.4 mg/kg, route inh; conditions: in vivo, inhaled or intranasal, 0.4 mg/kg
[30] = Clearance in Wistar rat plasma at 5 mg/kg, ip administered as bolus dose measured after 5 to 360 mins by LC-MS/MS analysis; type: ADME, organism-based; conditions: time 5-360 min
[31] = test system: Mus musculus; experiment: Antiinflammatory activity LPS induced mouse model assessed as reduction in IL-6 level in plasma at 5 mg/kg, ip preincubated for 1 hr followed by LPS stimulation and measured after 2 hrs by ELISA method relative to control; type: functional; set-up: scale not given: the % may be the effect or the level left
[32] = test system: Mus musculus; experiment: Antiinflammatory activity LPS induced mouse model assessed as reduction in macrophage inflammatory protein-1alpha at 1 to 5 mg/kg, ip preincubated for 1 hr followed by LPS stimulation and measured after 2 hrs by luminex xMAP bead based assay; type: functional, organism-based; conditions: dose 1-5 mg/kg, time 3.0 hrs
[33] = AUC in C57BL/6 brain at 2 mg/kg, ip measured after 3 to 240 mins by LC-MS/MS analysis; type: ADME, organism-based; set-up: time 3-240 min, dose 2 mg/kg, route ip; conditions: C57BL/6, mouse
[34] = test system: Mus musculus; experiment: Antiinflammatory activity LPS induced mouse model assessed as reduction in macrophage inflammatory protein-1 beta at 1 to 5 mg/kg, ip preincubated for 1 hr followed by LPS stimulation and measured after 2 hrs by luminex xMAP bead based assay; type: functional, organism-based; conditions: dose 1-5 mg/kg, time 3.0 hrs
[35] = Drug uptake in MOG (35 to 55 residues)-induced experimental autoimmune encephalomyelitis mouse aerosol at 50 microg/L by LC-MS/MS analysis; type: ADME; conditions: in vivo, inhaled_or_intranasal, dose 50 µg/L

C1=CCC(c2cccnc2)NC1 (stereo not given)
Activity [1]: Dde
concentration at 1 h [2]: 5.34 ng/mL
CL [3]: 0.00811 mL/min/kg
Drug uptake [4]: 25 µg/L
half-life [5]: 68.4 min
Activity [6]: Active
AUC [7]: 1990 ng·h/mL
Tmax [8]: 9.6 min
Activity [9]: Dde
half-life [10]: 83.4 min
bioavailability [11]: 80.1%
Activity [12]: 34%
CL/F [13]: 78.6 mL/min/kg
Tmax [14]: 9.6 min
concentration at 0.5 h [15]: 0.87 ng/mL
Activity [16]: 0.6
Drug uptake [17]: 250 µg/L
Vd [18]: 1.23 L/kg
Tmax [19]: 1.8 min
bioavailability [20]: 68.6%
Cmax [21]: 780 ng/mL
bioavailability [22]: 68.6%
half-life [23]: 218 min
Cmax [24]: 1180 ng/mL
Activity [25]: Active
AUC [26]: 2730 ng·h/mL
Cp [27]: 531.5 ng/mL
F [28]: 100%
AUC [29]: 637 ng·h/mL
CL/F [30]: 8.11 mL/min/kg
Activity [31]: 47.2%
Activity [32]: Active
AUC [33]: 1490 ng·h/mL
Activity [34]: Active
Drug uptake [35]: 50.6 ng/mL
